Assay results published in US11090313B2, “Methods for inhibiting muscle atrophy” (UNIVERSITY OF IOWA RESEARCH FOUNDATION, priority 2010, dated 2021).

Key:
Format in all cases: in vivo, mouse
C57BL/6 mice = assay: High fat diet model of obesity and metabolic syndrome with ursolic acid; settings: high fat diet containing 0.27% ursolic acid
Description: To test this, C57BL/6 mice were given ad libitum access to a high fat diet (HFD; Teklad TD.93075; 55% calories from fat) lacking or containing 0.27% ursolic acid. After 7 weeks, mice from each group were studied for three days in comprehensive lab animal monitoring systems (“CLAMS”; Columbus Instruments). In the CLAMS, mice were maintained on the same diet they had been eating since the beginning of the experiment. Following CLAMS, tissues were harvested for analysis.
The study was carried out as follows: C57BL/6 mice were given ad libitum access to a high fat diet (“HFD”; Teklad TD.93075; 55% calories from fat) lacking or containing 0.27% ursolic acid. After 5 weeks, mice were fasted for 16 h before blood glucose was measured via the tail vein (FIG. 15A). Normal fasting blood glucose: ≤100 mg/dl. (B-I) After 7 weeks, liver and plasma were harvested for analysis (FIGS. 15B-15H).

mice = assay: High fat diet with ursolic acid and/or naringenin; settings: 5 weeks
Description: To determine this, weight-matched mice were provided ad libitum access to standard (Harlan Teklad formula 7013), high fat diet (HFD; Harlan Teklad formula TD93075), or HFD containing varying concentrations of ursolic acid (0.15%) and/or naringenin (0.5% or 1.5%). After the mice consumed these diets for 5 weeks, fasting blood glucose, total body weight, fat mass, liver weight, grip strength, and skeletal muscle weight was measured.

[1] = test system: gastrocnemius muscle mRNA; assay: Exon expression arrays of gastrocnemius muscle mRNA in mice fed ursolic acid; settings: 0.27% ursolic acid in chow 5 weeks
Description: Following harvest, skeletal muscle samples were immediately placed in RNAlater (Ambion) and stored at −80° C. until further use. […] These raw microarray data from humans and mice have been deposited in NCBI's Gene Expression Omnibus (“GEO”) and are accessible through GEO Series accession numbers GSE28016 and GSE28017, respectively. Exon array studies of the effects of fasting on mouse skeletal muscle, and the effects of spinal cord injury on human skeletal muscle were described previously (Adams C M, et al. (2011) Muscle & nerve 43(1):65-75; Ebert S M, et al. (2010) Molecular Endocrinology 24(4):790-799).
To test this hypothesis, an unbiased approach was used, specifically exon expression arrays were used to analyze gastrocnemius muscle mRNA expression in mice that had been fed diets lacking or containing ursolic acid for 5 weeks. […] Each array assessed pooled gastrocnemius RNA from two mice. Stringent criteria were used for ursolic acid-induced effects on mRNA levels (P<0.005), and mRNAs with low levels of expression were disregarded (i.e. only transcripts that were increased to a mean log2 hybridization signal ≥8, or repressed from a mean log2 hybridization signal ≥8 were included).

[2] = HFD with ursolic acid 0.15% or naringenin 0.5% or 1.5%

C[C@H]1[C@H](C)CC[C@]2(C(=O)O)CC[C@]3(C)C(=CC[C@@H]4[C@@]5(C)CC[C@H](O)C(C)(C)[C@@H]5CC[C@]43C)[C@H]12 [ursolic acid]
weight gain (C57BL/6 mice): dramatically reduced weight gain | impaired fasting glucose (pre-diabetes) or diabetes (C57BL/6 mice; 5 weeks, 16 h fast): prevented | brown fat in scapular fat pad (C57BL/6 mice; 7 weeks): increased brown fat | energy expenditure (CLAMS) (C57BL/6 mice; 7 weeks): increased energy expenditure | grip strength (C57BL/6 mice; 7 weeks): increased grip strength | hepatic changes of fatty liver disease (liver weight, hepatocellular lipid accumulation, plasma AST, ALT, alkaline phosphatase) (C57BL/6 mice; 7 weeks): prevented all of these hepatic changes | muscle mass (C57BL/6 mice; 7 weeks): increased | obesity-related hypercholesterolemia (plasma cholesterol) (C57BL/6 mice; 7 weeks): reduced obesity-related hypercholesterolemia | retroperitoneal and epididymal fat (C57BL/6 mice; 7 weeks): reduced retroperitoneal and epididymal fat | white fat in scapular fat pad (C57BL/6 mice; 7 weeks): reduced white fat | fasting blood glucose in high fat fed mice (mice; HFD with ursolic acid 0.15% and/or naringenin 0.5% or 1.5%): partially prevented | grip strength in high fat fed mice (mice; [2]): increased strength to a greater extent than naringenin | skeletal muscle weight in high fat fed mice (mice; [2]): increased muscle weight | levels of mRNAs encoding myostatin, twist or myogenin ([1]; gastrocnemius): did not alter levels of mRNAs encoding myostatin | levels of IGF1 exons (exons 2-6) ([1]; gastrocnemius exon arrays): increased levels of all measured IGF1 exons | 2310016M24Rik mRNA Change (mean log2, ursolic acid diet minus control diet) ([1]; mice, gastrocnemius): 0.12 log2 | 2610507B11Rik mRNA Change (mean log2, ursolic acid diet minus control diet) ([1]; mice, gastrocnemius): 0.14 log2 | Acadm mRNA Change (mean log2, ursolic acid diet minus control diet) ([1]; mice, gastrocnemius): −0.11 log2 | Adprhl1 mRNA Change (mean log2, ursolic acid diet minus control diet) ([1]; mice, gastrocnemius): −0.26 log2 | Ahsa2 mRNA Change (mean log2, ursolic acid diet minus control diet) ([1]; mice, gastrocnemius): 0.18 log2 | Arfgap2 mRNA Change (mean log2, ursolic acid diet minus control diet) ([1]; mice, gastrocnemius): 0.30 log2 | Asb5 mRNA Change (mean log2, ursolic acid diet minus control diet) ([1]; mice, gastrocnemius): 0.21 log2 | BC004004 mRNA Change (mean log2, ursolic acid diet minus control diet) ([1]; mice, gastrocnemius): 0.06 log2 | C3 mRNA Change (mean log2, ursolic acid diet minus control diet) ([1]; mice, gastrocnemius): 0.70 log2 | Cacna1s mRNA Change (mean log2, ursolic acid diet minus control diet) ([1]; mice, gastrocnemius): −0.22 log2 | Cd24a mRNA Change (mean log2, ursolic acid diet minus control diet) ([1]; mice, gastrocnemius): 0.28 log2 | Ctsb mRNA Change (mean log2, ursolic acid diet minus control diet) ([1]; mice, gastrocnemius): 0.16 log2 | D0H4S114 mRNA Change (mean log2, ursolic acid diet minus control diet) ([1]; mice, gastrocnemius): 0.15 log2 | D4Wsu53e mRNA Change (mean log2, ursolic acid diet minus control diet) ([1]; mice, gastrocnemius): −0.18 log2 | Ddit4l mRNA Change (mean log2, ursolic acid diet minus control diet) ([1]; mice, gastrocnemius): −0.32 log2 | Eef1e1 mRNA Change (mean log2, ursolic acid diet minus control diet) ([1]; mice, gastrocnemius): 0.15 log2 | Eif4g3 mRNA Change (mean log2, ursolic acid diet minus control diet) ([1]; mice, gastrocnemius): −0.12 log2 | Fbp2 mRNA Change (mean log2, ursolic acid diet minus control diet) ([1]; mice, gastrocnemius): 0.37 log2 | Fbxo32 (Atrogin-1) mRNA Change (mean log2, ursolic acid diet minus control diet) ([1]; mice, gastrocnemius): −0.35 log2 | Fhl3 mRNA Change (mean log2, ursolic acid diet minus control diet) ([1]; mice, gastrocnemius): 0.31 log2 | Fmo1 mRNA Change (mean log2, ursolic acid diet minus control diet) ([1]; mice, gastrocnemius): 0.47 log2 | Foxn3 mRNA Change (mean log2, ursolic acid diet minus control diet) ([1]; mice, gastrocnemius): −0.09 log2 | Gfm1 mRNA Change (mean log2, ursolic acid diet minus control diet) ([1]; mice, gastrocnemius): 0.12 log2 | Ggct mRNA Change (mean log2, ursolic acid diet minus control diet) ([1]; mice, gastrocnemius): 0.24 log2 | Ghitm mRNA Change (mean log2, ursolic acid diet minus control diet) ([1]; mice, gastrocnemius): 0.05 log2 | Golga4 mRNA Change (mean log2, ursolic acid diet minus control diet) ([1]; mice, gastrocnemius): −0.14 log2 | Gpx1 mRNA Change (mean log2, ursolic acid diet minus control diet) ([1]; mice, gastrocnemius): 0.36 log2 | H19 mRNA Change (mean log2, ursolic acid diet minus control diet) ([1]; mice, gastrocnemius): 0.39 log2 | Hipk2 mRNA Change (mean log2, ursolic acid diet minus control diet) ([1]; mice, gastrocnemius): 0.38 log2 | Hk2 mRNA Change (mean log2, ursolic acid diet minus control diet) ([1]; mice, gastrocnemius): 0.26 log2 | Hspb8 mRNA Change (mean log2, ursolic acid diet minus control diet) ([1]; mice, gastrocnemius): 0.32 log2 | Hsph1 mRNA Change (mean log2, ursolic acid diet minus control diet) ([1]; mice, gastrocnemius): 0.30 log2 | Igf1 mRNA Change (mean log2, ursolic acid diet minus control diet) ([1]; mice, gastrocnemius): 0.56 log2 | Klhl31 mRNA Change (mean log2, ursolic acid diet minus control diet) ([1]; mice, gastrocnemius): −0.09 log2 | Krr1 mRNA Change (mean log2, ursolic acid diet minus control diet) ([1]; mice, gastrocnemius): 0.15 log2 | Lsm14a mRNA Change (mean log2, ursolic acid diet minus control diet) ([1]; mice, gastrocnemius): 0.18 log2 | Lum mRNA Change (mean log2, ursolic acid diet minus control diet) ([1]; mice, gastrocnemius): 0.61 log2 | Lyz2 mRNA Change (mean log2, ursolic acid diet minus control diet) ([1]; mice, gastrocnemius): 0.71 log2 | Mlec mRNA Change (mean log2, ursolic acid diet minus control diet) ([1]; mice, gastrocnemius): −0.19 log2 | Mrpl46 mRNA Change (mean log2, ursolic acid diet minus control diet) ([1]; mice, gastrocnemius): 0.15 log2 | Musk mRNA Change (mean log2, ursolic acid diet minus control diet) ([1]; mice, gastrocnemius): 0.31 log2 | Nampt mRNA Change (mean log2, ursolic acid diet minus control diet) ([1]; mice, gastrocnemius): 0.41 log2 | Ndufaf4 mRNA Change (mean log2, ursolic acid diet minus control diet) ([1]; mice, gastrocnemius): 0.14 log2 | Ndufs2 mRNA Change (mean log2, ursolic acid diet minus control diet) ([1]; mice, gastrocnemius): 0.14 log2 | Ndufs4 mRNA Change (mean log2, ursolic acid diet minus control diet) ([1]; mice, gastrocnemius): 0.14 log2 | Nnt mRNA Change (mean log2, ursolic acid diet minus control diet) ([1]; mice, gastrocnemius): −0.24 log2 | Npc1 mRNA Change (mean log2, ursolic acid diet minus control diet) ([1]; mice, gastrocnemius): 0.22 log2 | Nrap mRNA Change (mean log2, ursolic acid diet minus control diet) ([1]; mice, gastrocnemius): −0.14 log2 | Ostn mRNA Change (mean log2, ursolic acid diet minus control diet) ([1]; mice, gastrocnemius): 0.43 log2 | Paip2b mRNA Change (mean log2, ursolic acid diet minus control diet) ([1]; mice, gastrocnemius): −0.16 log2 | Parp3 mRNA Change (mean log2, ursolic acid diet minus control diet) ([1]; mice, gastrocnemius): 0.32 log2 | Pde4dip mRNA Change (mean log2, ursolic acid diet minus control diet) ([1]; mice, gastrocnemius): −0.18 log2 | Pdha1 mRNA Change (mean log2, ursolic acid diet minus control diet) ([1]; mice, gastrocnemius): 0.18 log2 | Pnn mRNA Change (mean log2, ursolic acid diet minus control diet) ([1]; mice, gastrocnemius): −0.18 log2 | Prdx5 mRNA Change (mean log2, ursolic acid diet minus control diet) ([1]; mice, gastrocnemius): 0.10 log2 | Psma2 mRNA Change (mean log2, ursolic acid diet minus control diet) ([1]; mice, gastrocnemius): 0.15 log2 | Sepp1 mRNA Change (mean log2, ursolic acid diet minus control diet) ([1]; mice, gastrocnemius): 0.35 log2 | Sepx1 mRNA Change (mean log2, ursolic acid diet minus control diet) ([1]; mice, gastrocnemius): 0.28 log2 | Sfpq mRNA Change (mean log2, ursolic acid diet minus control diet) ([1]; mice, gastrocnemius): −0.18 log2 | Sfrs5 mRNA Change (mean log2, ursolic acid diet minus control diet) ([1]; mice, gastrocnemius): −0.22 log2 | Smox mRNA Change (mean log2, ursolic acid diet minus control diet) ([1]; mice, gastrocnemius): 0.81 log2 | Sod2 mRNA Change (mean log2, ursolic acid diet minus control diet) ([1]; mice, gastrocnemius): 0.12 log2 | Sqstm1 mRNA Change (mean log2, ursolic acid diet minus control diet) ([1]; mice, gastrocnemius): 0.12 log2 | Ssr4 mRNA Change (mean log2, ursolic acid diet minus control diet) ([1]; mice, gastrocnemius): 0.14 log2 | Trappc2l mRNA Change (mean log2, ursolic acid diet minus control diet) ([1]; mice, gastrocnemius): 0.16 log2 | Trip10 mRNA Change (mean log2, ursolic acid diet minus control diet) ([1]; mice, gastrocnemius): 0.23 log2 | Tyrobp mRNA Change (mean log2, ursolic acid diet minus control diet) ([1]; mice, gastrocnemius): 0.69 log2 | Ube2l3 mRNA Change (mean log2, ursolic acid diet minus control diet) ([1]; mice, gastrocnemius): 0.16 log2 | Vps29 mRNA Change (mean log2, ursolic acid diet minus control diet) ([1]; mice, gastrocnemius): 0.20 log2
